# Measured values published in BindingDB's records for PubMed 8100350 (University of Pennsylvania, 1993).
# Where a SMILES comes first, the peptide text is derived from it. Bridges are numbered along the chain shown (N, C = ends). [ ]: non-standard residue; d: D form. The star is where a group is joined. NH(1-naphthylmethyl) = c1ccc2c(CN*)cccc2c1; Phe(4-Cl) = N[C@@H](Cc1ccc(Cl)cc1)C(=O)O; dPhe(4-Cl) = N[C@H](Cc1ccc(Cl)cc1)C(=O)O; 2Nal = N[C@@H](Cc1ccc2ccccc2c1)C(=O)O; d2Nal = N[C@H](Cc1ccc2ccccc2c1)C(=O)O; 1Nal = N[CH](Cc1cccc2ccccc12)C(=O)O; dNMeF = CN[C@H](Cc1ccccc1)C(=O)O; Thr(ol) = C[CH](O)[CH](N)CO; dNMeA = CN[C@H](C)C(=O)O; Aoc = NCCCCCCCC(=O)O; Ahp = NCCCCCCC(=O)O; Ahx = NCCCCCC(=O)O; Bn = c1ccc(C*)cc1
# How the values were obtained:
# [1] = target: Somatostatin receptor type 3 (Mus musculus, UniProt P30935)
# Sequence of Somatostatin receptor type 3 (P30935 whole entry): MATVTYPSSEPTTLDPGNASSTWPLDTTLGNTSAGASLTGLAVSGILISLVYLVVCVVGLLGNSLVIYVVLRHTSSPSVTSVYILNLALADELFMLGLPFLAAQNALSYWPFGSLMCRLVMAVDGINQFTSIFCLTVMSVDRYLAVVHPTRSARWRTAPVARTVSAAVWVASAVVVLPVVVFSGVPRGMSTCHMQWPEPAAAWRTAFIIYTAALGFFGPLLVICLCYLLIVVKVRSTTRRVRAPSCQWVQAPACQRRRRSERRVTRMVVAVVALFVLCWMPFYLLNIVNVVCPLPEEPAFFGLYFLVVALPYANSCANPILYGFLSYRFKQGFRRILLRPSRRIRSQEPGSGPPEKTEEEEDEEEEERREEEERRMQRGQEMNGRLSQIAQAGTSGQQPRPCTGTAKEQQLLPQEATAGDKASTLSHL
# [2] = target: Somatostatin receptor type 2 (Mus musculus, UniProt P30875)
# Sequence of Somatostatin receptor type 2 (P30875 whole entry): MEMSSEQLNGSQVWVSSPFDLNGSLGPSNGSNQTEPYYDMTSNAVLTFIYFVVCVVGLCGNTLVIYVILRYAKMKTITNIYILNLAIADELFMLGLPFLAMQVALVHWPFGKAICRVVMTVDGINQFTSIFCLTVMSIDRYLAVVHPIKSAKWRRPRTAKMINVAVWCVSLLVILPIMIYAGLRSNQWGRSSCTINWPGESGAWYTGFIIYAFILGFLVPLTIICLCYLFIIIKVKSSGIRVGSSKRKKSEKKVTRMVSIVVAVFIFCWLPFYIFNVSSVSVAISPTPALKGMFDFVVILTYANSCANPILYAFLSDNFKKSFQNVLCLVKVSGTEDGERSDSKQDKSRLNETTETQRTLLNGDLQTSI
# [3] = target: Somatostatin receptor type 1 (Homo sapiens, UniProt P30872)
# Sequence of Somatostatin receptor type 1 (P30872 whole entry): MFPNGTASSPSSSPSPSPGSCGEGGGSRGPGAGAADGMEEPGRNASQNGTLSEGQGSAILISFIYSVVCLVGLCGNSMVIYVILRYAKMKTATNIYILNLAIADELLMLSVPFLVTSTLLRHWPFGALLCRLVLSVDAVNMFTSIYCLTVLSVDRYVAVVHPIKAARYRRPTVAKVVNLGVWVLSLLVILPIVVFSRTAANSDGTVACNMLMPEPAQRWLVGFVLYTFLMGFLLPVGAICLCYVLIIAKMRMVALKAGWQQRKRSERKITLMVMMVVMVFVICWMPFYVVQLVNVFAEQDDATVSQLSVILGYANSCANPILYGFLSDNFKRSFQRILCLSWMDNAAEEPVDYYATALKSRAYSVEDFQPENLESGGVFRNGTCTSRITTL
Structure (SMILES),Ki [1],Ki [2],Ki [3]
CC(C)[C@H](NC(=O)[C@H](CCCCN)NC(=O)[C@@H](Cc1c[nH]c2ccccc12)NC(=O)[C@H](Cc1ccc(O)cc1)NC(=O)[C@H](C)NC(=O)[C@H](N)Cc1ccc(Cl)cc1)C(=O)N[C@@H](C)C(=O)N[C@@H](Cc1ccc2ccccc2c1)C(N)=O [CAS_150155-67-2] (H-[dPhe(4-Cl)]AY[dW]KVA[2Nal]-NH2),143 nM,22 nM,1000 nM
CC(C)C1NC(=O)C(CCCCN)NC(=O)C(Cc2c[nH]c3ccccc23)NC(=O)C(Cc2ccc(O)cc2)NC(=O)C(NC(=O)C(N)Cc2cccc3ccccc23)CSSCC(C(=O)NC(CO)C(C)O)NC1=O (stereo not given) [DC23-60] (H-[1Nal]CYWKVC[Thr(ol)]; disulfide 2-7; configuration not given here),166 nM,0.93 nM,241 nM
"CC(C)[C@H](NC(=O)[C@H](CCCCN)NC(=O)[C@@H](Cc1c[nH]c2ccccc12)NC(=O)[C@H](Cc1ccc(O)cc1)NC(=O)[C@H](C)NC(=O)[C@H](N)Cc1ccccc1)C(=O)N[C@@H](C)C(=O)N[C@@H](Cc1ccc2ccccc2c1)C(N)=O [L-Alaninamide,D-phenylalanyl-L-alanyl-L-tyrosyl-D-tryptophyl-L-lysyl-L-valyl-L-alanyl-3-(2-naphthalenyl)-(9CI)] (H-[dF]AY[dW]KVA[2Nal]-NH2)",152 nM,6.1 nM,1000 nM
NCCCCC1NC(=O)C(Cc2c[nH]c3ccccc23)NC(=O)C(Cc2ccc(O)cc2)NC(=O)C(NC(=O)C(N)Cc2ccccc2)CSSCC(C(=O)NCc2cccc3ccccc23)NC(=O)C(CO)NC1=O (stereo not given) [NC4-28B] (H-FCYWKSC-{NH(1-naphthylmethyl)}; disulfide 2-7; configuration not given here),112 nM,0.002 nM,1000 nM
NCCCC[C@@H]1NC(=O)[C@@H](Cc2c[nH]c3ccccc23)NC(=O)[C@H](Cc2ccccc2)NC(=O)CCCCCCNC(=O)[C@H](COCc2ccccc2)NC1=O [c[Aha-Phe-D-Trp-Lys-Ser(Bzl)]] (cyclo([Ahp]F[dW]KS(Bn))),214 nM,1000 nM,80 nM
C[C@@H](OCc1ccccc1)[C@@H]1NC(=O)[C@H](CCCCN)NC(=O)[C@@H](Cc2c[nH]c3ccccc23)NC(=O)[C@H](Cc2ccccc2)NC(=O)CCCCCCNC1=O [c[Aha-Phe-D-Trp-Lys-Thr(Bzl)]] (cyclo([Ahp]F[dW]KT(Bn))),107 nM,1000 nM,141 nM
C[C@@H](O)[C@@H]1NC(=O)[C@H](CCCCN)NC(=O)[C@@H](Cc2c[nH]c3ccccc23)NC(=O)[C@H](Cc2ccccc2)NC(=O)CCCCCCNC1=O [c[Aha-Phe-D-Trp-Lys-Thr]] (cyclo([Ahp]F[dW]KT)),1000 nM,1000 nM,1000 nM
C[C@@H](OCc1ccccc1)[C@@H]1NC(=O)[C@H](CCCCN)NC(=O)[C@@H](Cc2c[nH]c3ccccc23)NC(=O)[C@H](Cc2ccccc2)NC(=O)CCCCCCCNC1=O [c[Aoc-Phe-D-Trp-Lys-Thr(Bzl)]] (cyclo([Aoc]F[dW]KT(Bn))),101 nM,1000 nM,700 nM
C[C@@H]1NC(=O)[C@@H]2CCCN2C(=O)[C@H](Cc2ccccc2)NC(=O)[C@H]([C@@H](C)O)NC(=O)[C@H](CCCCN)NC(=O)[C@@H](Cc2c[nH]c3ccccc23)NC1=O [cyclo(Pro-Ala-Trp-Lys-Thr-Phe)] (cyclo(A[dW]KTFP)),244 nM,356 nM,1000 nM

# Compounds with a lower Ki [1], results first:
Ki [1],Ki [2],Ki [3],Structure (SMILES)
11 nM,40 nM,1000 nM,C[C@@H](O)[C@H](NC(=O)[C@H](Cc1ccccc1)NC(=O)[C@@H](NC(=O)[C@H](CCCCN)NC(=O)[C@@H](Cc1c[nH]c2ccccc12)NC(=O)[C@H](Cc1ccc(O)cc1)NC(=O)[C@H](Cc1ccc(Cl)cc1)NC(=O)[C@H](N)Cc1ccc2ccccc2c1)[C@@H](C)O)C(N)=O [CAS_150155-63-8] (H-[d2Nal][Phe(4-Cl)]Y[dW]KTFT-NH2)
10 nM,86 nM,1000 nM,CC(C)[C@H](NC(=O)[C@H](CCCCN)NC(=O)[C@@H](Cc1c[nH]c2ccccc12)NC(=O)[C@H](Cc1ccc(O)cc1)NC(=O)[C@H](C)NC(=O)[C@H](N)Cc1ccc2ccccc2c1)C(=O)N[C@@H](C)C(=O)N[C@H](C(N)=O)[C@@H](C)O [D-Nal-Ala-Tyr-D-Trp-Lys-Val-Ala-Thr-NH2] (H-[d2Nal]AY[dW]KVAT-NH2)
7.1 nM,0.008 nM,1000 nM,C[C@@H](O)[C@H](NC(=O)[C@@H]1CSSC[C@H](NC(=O)[C@H](N)Cc2ccc3ccccc3c2)C(=O)N[C@@H](Cc2ccc(O)cc2)C(=O)N[C@H](Cc2c[nH]c3ccccc23)C(=O)N[C@@H](CCCCN)C(=O)N[C@@H]([C@@H](C)O)C(=O)N1)C(N)=O [D-Nal-c[Cys-Tyr-D-Trp-Lys-Thr-Cys]-Thr-NH2]
65 nM,60 nM,146 nM,CC(C)[C@H](NC(=O)[C@H](CCCCN)NC(=O)[C@@H](Cc1c[nH]c2ccccc12)NC(=O)[C@H](Cc1ccc(O)cc1)NC(=O)[C@H](C)NC(=O)[C@H](N)Cc1ccccc1)C(=O)N[C@@H](C)C(=O)N[C@H](Cc1ccc2ccccc2c1)C(N)=O [D-Phe-AIa-Tyr-D-Trp-Lys-Val-Ala-D-Nal-NH2] (H-[dF]AY[dW]KVA[d2Nal]-NH2)
13.5 nM,0.001 nM,1000 nM,CC[C@@H]1NC(=O)[C@H](CCCCN)NC(=O)[C@@H](Cc2c[nH]c3ccccc23)NC(=O)[C@H](Cc2ccc(O)cc2)NC(=O)[C@@H](NC(=O)[C@H](N)Cc2ccccc2)CSSC[C@@H](C(=O)N[C@H](C(N)=O)[C@@H](C)O)NC1=O [D-Phe-L-Cys(1)-L-Tyr-D-Trp-L-Lys-L-Abu-L-Cys(1)-L-Thr-NH2]
38 nM,> 10000 nM,1000 nM,CC(C)[C@H](NC(=O)[C@H](CCCCN)NC(=O)[C@@H](Cc1c[nH]c2ccccc12)NC(=O)[C@H](Cc1ccc(O)cc1)NC(=O)[C@H](Cc1ccccc1)NC(=O)[C@H](N)Cc1ccccc1)C(=O)N[C@@H](Cc1ccccc1)C(=O)N[C@H](Cc1ccccc1)C(N)=O [D-Phe-Phe-Tyr-D-Trp-Lys-Val-Phe-D-Phe-NH2] (H-[dF]FY[dW]KVF[dF]-NH2)
20 nM,4.8 nM,382 nM,CC(O)C1NC(=O)C(CCCCN)NC(=O)C(Cc2c[nH]c3ccccc23)NC(=O)C(Cc2ccccc2)NC(=O)C(NC(=O)C(N)Cc2ccccc2)CSSCC(C(=O)NCc2cccc3ccccc23)NC1=O (stereo not given) [EC5-21] (H-FCFWKTC-{NH(1-naphthylmethyl)}; disulfide 2-7; configuration not given here)
30 nM,29 nM,1000 nM,C[C@@H](O)[C@@H]1NC(=O)[C@H](CCCCN)NC(=O)[C@@H](Cc2c[nH]c3ccccc23)NC(=O)[C@H](Cc2c[nH]c3ccccc23)NC(=O)[C@H](Cc2ccccc2)NC(=O)CCCCCCNC(=O)[C@H](Cc2ccccc2)NC1=O [L-362855] (cyclo([Ahp]FW[dW]KTF))
24 nM,8.3 nM,580 nM,C[C@@H](O)[C@@H]1NC(=O)[C@H](CCCCN)NC(=O)[C@@H](Cc2c[nH]c3ccccc23)NC(=O)[C@H](Cc2ccc(Cl)cc2)NC(=O)[C@H](Cc2ccccc2)NC(=O)CCCCCCNC(=O)[C@H](Cc2ccccc2)NC1=O [L-362862] (cyclo([Ahp]F[Phe(4-Cl)][dW]KTF))
18.9 nM,26 nM,1000 nM,C[C@H](O)[C@H]1NC(=O)[C@H](CCCCN)NC(=O)[C@@H](Cc2c[nH]c3ccccc23)NC(=O)[C@@H](Cc2ccccc2)NC(=O)[C@@H](C)N(C)C(=O)[C@@H](Cc2ccccc2)N(C)C1=O [N-Methylcyclo(D-Ala-D-Phe-D-Trp-L-Lys-D-Thr-N-methyl-D-Phe-)] (cyclo(K[dT][dNMeF][dNMeA][dF][dW]))
73 nM,1000 nM,183 nM,C[C@@H](OCc1ccccc1)[C@@H]1NC(=O)[C@H](CCCCN)NC(=O)[C@@H](Cc2c[nH]c3ccccc23)NC(=O)[C@H](Cc2ccccc2)NC(=O)CCCCCNC1=O [c[Ahx-Phe-D-Trp-Lys-Thr(Bzl)]] (cyclo([Ahx]F[dW]KT(Bn)))
